Experimental findings from patent publication US20260347310A1, “PHENALKYLAMINES AND METHODS OF MAKING AND USING THE SAME” (GILGAMESH PHARMACEUTICALS, INC., priority 2022, published 2026) are described below.

The target in series [1] is T1, 5-HT2A receptor (Homo sapiens, UniProt P28223). Put plainly: Radioligand binding at 5-HT2A ([3H]ketanserin). Further details: expressed in transfected cells. As to the method: (§1) The binding affinities of disclosed compounds at the ketanserin binding site of the 5-HT2A receptor, the LSD binding site of the 5-HT2B receptor, and the mesulergine binding site of the 5-HT2C receptor were determined in radioligand binding experiments.
T1 sequence (P28223 whole entry): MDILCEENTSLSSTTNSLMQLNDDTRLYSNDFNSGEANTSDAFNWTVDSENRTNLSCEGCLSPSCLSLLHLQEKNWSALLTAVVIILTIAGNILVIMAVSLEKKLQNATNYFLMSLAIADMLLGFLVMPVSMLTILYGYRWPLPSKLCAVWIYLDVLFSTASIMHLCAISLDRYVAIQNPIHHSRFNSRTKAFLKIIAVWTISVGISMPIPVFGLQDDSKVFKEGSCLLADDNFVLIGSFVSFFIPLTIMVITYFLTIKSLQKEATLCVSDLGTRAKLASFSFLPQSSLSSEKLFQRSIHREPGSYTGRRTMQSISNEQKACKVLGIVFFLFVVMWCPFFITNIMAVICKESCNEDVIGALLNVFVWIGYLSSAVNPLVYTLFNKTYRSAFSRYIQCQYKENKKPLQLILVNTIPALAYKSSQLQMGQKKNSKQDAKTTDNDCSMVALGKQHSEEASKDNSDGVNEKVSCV
(§2) Method. The affinity of the test compounds for 5-HT2A, 5-HT2B, and 5-HT2C receptors was determined in radioligand binding experiments with [^3H]ketanserin, [^3H]LSD, and [^3H]mesulergine, respectively, by WuXi AppTec (Hong Kong) Limited, using methods adapted from the literature and under conditions described in Table 7.

Series [2] has as its target T1, 5-HT2A receptor. Put plainly: FLIPR Ca2+ flux functional agonist assay at 5-HT2A. Format: cell-based. On the set-up: expressed in transfected cells; host or cells: HEK293. Conditions: for agonist activity at 5-HT2A (in words): potency or efficacy; for Emax: HEK293, read-out: 5-HT2A % Act @ Max Dose. As to the method: Disclosed compounds were tested for agonist activity at several serotonin receptor subtypes (5-HT2A, […], and 5-HT2C) using Ca^2+ flux functional assays, with the results summarized in Table 9.
(§3) Test Compounds. Compounds were prepared as described above.
Functional Assays at 5-HT2A and 5-HT2B. Agonist activity at 5-HT2A and 5-HT2B receptors was determined using a FLIPR Ca^2+ flux assay at WuXi AppTec (Hong Kong) Limited according to their standard protocols. Briefly, stably transfected cells expressing the receptor of interest (HEK293 for both 5-HT2A and 5-HT2B) were grown and plated in a 384-well plate and incubated at 37° C. and 5% CO2 overnight. A solution of 250 mM probenecid in 1 mL FLIPR assay buffer was prepared fresh. This was combined with a fluorescent dye (Fluo-4 Direct™) to make a final assay concentration of 2.5 mM. Compounds were diluted 1:3.16 for 10 points and 750 nL was added to a 384 well compound plate using ECHO along with 30 μL assay buffer. The fluorescent dye was then added to the assay plate along with assay buffer to a final volume of 40 μL. The cell plate was incubated for 50 min at 37° C. and 5% CO2 and placed into the FLIPR Tetra along with the compound plate. 10 μL of references and compounds were then transferred from the compound plate into the cell plate and the fluorescent signal was read.

Another series addresses T2, 5-HT2C receptor (Homo sapiens, UniProt P28335).
T2 sequence (P28335 33-458): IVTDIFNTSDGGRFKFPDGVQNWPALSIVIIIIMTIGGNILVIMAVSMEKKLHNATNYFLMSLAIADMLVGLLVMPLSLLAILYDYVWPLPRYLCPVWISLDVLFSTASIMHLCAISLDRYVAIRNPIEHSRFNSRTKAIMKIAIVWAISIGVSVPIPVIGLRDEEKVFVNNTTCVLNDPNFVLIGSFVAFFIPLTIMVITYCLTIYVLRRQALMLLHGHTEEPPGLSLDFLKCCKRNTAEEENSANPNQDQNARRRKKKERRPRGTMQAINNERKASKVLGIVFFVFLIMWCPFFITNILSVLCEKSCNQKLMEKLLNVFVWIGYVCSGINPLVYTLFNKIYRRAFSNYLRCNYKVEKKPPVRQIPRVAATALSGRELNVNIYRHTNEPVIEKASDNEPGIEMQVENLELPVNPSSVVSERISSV
Put plainly: Radioligand binding at 5-HT2C ([3H]mesulergine). As to the method:
as §1, §2

The target in series [3] is T1, 5-HT2A receptor. Put plainly: PathHunter beta-arrestin recruitment functional agonist assay at 5-HT2A. Conditions: for agonist activity at 5-HT2A in arrestin assay (in words): beta-arrestin recruitment; for Emax: read-out: 5-HT2A Arrestin % Act @ Max Dose. Further details: expressed in transfected cells; host or cells: PathHunter cells (Eurofins DiscoverX). Format: cell-based. On the procedure: Disclosed compounds were tested for agonist activity at the 5-HT2A receptor using a beta-arrestin (arrestin) recruitment functional assay, with the results summarized in Table 10.
Arrestin Functional Assay at 5-HT2A. Recruitment of beta-arrestin was determined using a PathHunter assay at Eurofins DiscoverX (Fremont, CA) according to their standard protocols. PathHunter GPCR beta-arrestin assays take advantage of DiscoverX's proprietary Enzyme Fragment Complementation technology. The GPCR is fused in frame with a small enzyme donor fragment ProLink™ (PK) and co-expressed in cells stably expressing a fusion protein of beta-arrestin and the larger, N-terminal deletion mutant of beta-galactosidase. Activation of the GPCR (5-HT2A receptor in this case) stimulates binding of beta-arrestin to the PK-tagged GPCR and forces complementation of the two enzyme fragments, resulting in the formation of an active beta-galactosidase enzyme. This interaction leads to an increase in enzyme activity that can be measured using chemiluminescent PathHunter Detection Reagents. Briefly, PathHunter cells expressing 5-HT2A receptors were seeded in a volume of 20 μL into 384-well plates and incubated at 37° C. for the appropriate time prior to testing. For agonist activity determination, cells were incubated with 5 μL of 5× sample in assay buffer and incubated at 37° C. for 90-180 min with a vehicle concentration of 1%. Plates were then imaged on a microplate reader and the agonist activity was calculated using the following formula: % Activity=100%×(mean RLU of test sample−mean RLU of vehicle control)/(mean MAX control ligand−mean RLU of vehicle control), where RLU=relative light units.
A general note: Activated receptors often draw arrestin, which recruitment assays turn into a signal.

Series [4] in a line: Metabolic stability in dog liver microsomes (DLM). The format is in vitro ADME, Beagle dogs. Conditions: for stability in DLM (in words): 1 μM, 0.50 mg protein/mL, 1 mM NADPH, 37 °C, 60 min; for half-life at 1 µM / microsomal CLint at 1 µM: dog liver microsomes 0.50 mg/mL, NADPH 1 mM, test compound 1 μM, 37° C., pH 7.4, 60 min. On the procedure:
as §3
DLM Stability. Pooled DLM from adult male Beagle dogs (Xenotech D1000) were used. Microsomal incubations were carried out in multi-well plates. Liver microsomal incubation medium consisted of PBS (100 mM, pH 7.4), MgCl2 (1 mM), and NADPH (1 mM), with 0.50 mg of liver microsomal protein per mL. Control incubations were performed by replacing the NADPH-cofactor system with PBS. Test compounds (1 μM, final solvent concentration 1.0%) were incubated with microsomes at 37° C. with constant shaking. Six time points over 60 minutes were analyzed, with 60 μL aliquots of the reaction mixture being drawn at each time point. The reaction aliquots were stopped by adding 180 μL of cold (4° C.) acetonitrile containing 200 ng/mL tolbutamide and 200 ng/mL labetalol as internal standards (IS), followed by shaking for 10 minutes, and then protein sedimentation by centrifugation at 4,000 rpm for 20 minutes at 4° C. Supernatant samples (80 μL) were diluted with water (240 μL) and analyzed for parent compound remaining using a fit-for-purpose liquid chromatography-tandem mass spectrometry (LC-MS/MS) method.
Data Analysis. The elimination constant (kel), half-life (t1/2), and intrinsic clearance (CLint) were determined in a plot of […] versus time, using linear regression analysis.

“Also recorded” adds a separate entry of the source.

Broadly, the Ki is a measure of affinity in units of concentration, obtained from inhibition or displacement. High values mean lower affinity, low ones higher affinity. One may read the EC50 as the concentration at which the effect is half-maximal. Low readings indicate greater potency, high ones weaker potency. Usually half-life stands for the time in which the quantity being followed falls by half. The term microsomal CLint denotes the rate of metabolic loss divided by the concentration. A higher microsomal CLint goes with rapid turnover. At 5-HT2A receptor [1], `CCCCCCc1cc(OC)c(C[C@H](N)CC)cc1OC` [Compound 1R, (R)-1-(4-hexyl-2,5-dimethoxyphenyl)butan-2-amine] displayed a Ki of 3.44 nM. At 5-HT2A receptor [1] (1R, over 5-HT2B and 5-HT2C, compared to 1S), the “selectivity for 5-HT2A (in words)” value was “greater selectivity for 5-HT2A”. At 5-HT2A receptor [2], the EC50 came out at 23.1 nM and the Emax amounted to 76.8%. Also, the “fold more potent at 5-HT2A” value at 5-HT2A receptor [2] (1R compared to 1S, Ca2+ flux) was ~ 2 fold. Besides, the “agonist activity at 5-HT2A (in words)” value on 5-HT2A receptor [2] (Ca2+ flux) is “Efficacy at 5-HT2A was also greater for 1R compared to 1S”. The same molecule registered a Ki at 5-HT2C receptor of 18 nM. The “fold lower affinity at 5-HT2C” value at 5-HT2C receptor (1R compared to 1S) is listed as ~ 7 fold. For the same molecule, on 5-HT2A receptor [3], the midpoint of the response, the EC50, lay at 6.23 nM; the “agonist activity at 5-HT2A in arrestin assay (in words)” value is recorded as “substantially more efficacious compared to 1S”; the Emax came to 82.5%. In series [4], the “stability in DLM (in words)” value is given as “substantially less stable than 1S”, the half-life at 1 µM was determined as 11.3 min and the intrinsic metabolic clearance (microsomal CLint) at 1 µM amounted to 122 µL/min/mg. In addition, the “CLint and half-life in DLM (in words)” value in series [4] (1R versus 1S) is “higher CLint and shorter half-life”.

In the case of `CCCCCCc1cc(OC)c(C[C@@H](N)CC)cc1OC` [Compound 1S, (S)-1-(4-hexyl-2,5-dimethoxyphenyl)butan-2-amine], on 5-HT2A receptor [1], the affinity corresponds to a Ki of 3.34 nM. Further, at 5-HT2A receptor [2], the EC50 stood at 43.8 nM and the Emax came to 59.7%. At 5-HT2C receptor, this molecule came in with a Ki of 2.68 nM. On 5-HT2A receptor [3], the EC50 was determined as 7.85 nM and the Emax was found to be 58.5%. Further, in series [4], the half-life at 1 µM came to 22.9 min and the microsomal CLint at 1 µM was 60.4 µL/min/mg.

`CCC(N)Cc1cc(OC)c(CCCCCC(F)(F)F)cc1OC` (racemic) [Compound 2a, 1-(2,5-dimethoxy-4-(6,6,6-trifluorohexyl)phenyl)butan-2-amine]: the Ki at 5-HT2A receptor [1] is 5.4 nM. In addition, on 5-HT2A receptor [1] ([3H]ketanserin), the “binding at 5-HT2A receptors (in words)” value is “potent ligands for 5-HT2A”. In addition, at 5-HT2A receptor [2], the 50% effective concentration (EC50) worked out at 156 nM and the Emax was 36.2%. Besides, the “agonist activity at 5-HT2A (in words)” value at 5-HT2A receptor [2] (Ca2+ flux) was “substantially less potent than 1R and 1S in the 5-HT2A FLIPR assay; also recorded: substantially lower efficacy than 1R or 1S”. The molecule also returned an inhibition constant (Ki) on 5-HT2C receptor of 61.7 nM. Also, the “selectivity for 5-HT2A over 5-HT2C (in words)” value at 5-HT2C receptor (Ki at 5-HT2C vs Ki at 5-HT2A) is “even higher selectivity than 1R for 5-HT2A over 5-HT2C”. Besides, at 5-HT2A receptor [3], the midpoint of the response, the EC50, lay at 33.2 nM; the “agonist activity at 5-HT2A in arrestin assay (in words)” value is given as “higher efficacy in this assay than in the 5-HT2A FLIPR assay”; the Emax is 56.8%. Also, in series [4], the “stability in DLM (in words)” value is “significantly higher stability compared to 1R and 1S”; the half-life at 1 µM is 71.3 min; the microsomal CLint at 1 µM worked out at 19.4 µL/min/mg.
